In patent US20110027352A1, “COMPOUNDS FOR USE IN THE TREATMENT OF NEUROPATHIC PAIN” (priority 2008, published 2011):
“Also recorded” adds a separate entry of the source. Counter-ions that a name gives are not always drawn.

Legend:
Type in all cases: in vivo, C57BL/6J mice
[1] = system: mechanical allodynia of the neuropathic (“Cuff”) mice; test: Sciatic nerve cuff murine model of neuropathic pain, von Frey filament test in neuropathic (Cuff) mice; details: for Mechanical allodynia in neuropathic (Cuff) mice after chronic treatment: injection twice a day; for Allodynia in neuropathic (Cuff) animals after chronic treatment, recapitulation (FIG. 25): chronic treatment (14-21 days), doses and modes as in examples 7, 9 to 14 and 20 (formoterol 0.5 mg/kg, terbutalin 5 mg/kg); for Mechanical allodynia of Cuff mice after the first (acute) injection: intraperitoneal, mice neuropathic for 2 weeks; for Effect on neuropathic allodynia acutely after the first injection, summary statement: first injection of the agonist, doses as in examples 7, 9, 11 and 15
Protocol: (§1) The experiments were carried out on adult male mice. The pharmacological experiments were carried out using C57BL/6J mice (3-to-6 weeks old on their arrival, Charles River, L'Arbresle, France).
All the experiments began with mice that were 6-to-9 weeks old. […] For all the other experiments, the mice were combined at four to five per cage and kept under alternating 12-hour day/night (light at 6 am) with food and water ad libitum.
(§2) The model is obtained by placing a polyethylene cuff around the main branch of the right sciatic nerve of each mouse. Before any surgical procedure, the mice were assigned to the various experimental groups in such a way that the baseline mechanical nociception threshold and the weight are equivalent between the various groups. The surgical procedure was carried out under ketamin-xylazin anesthesia (ketamin: 17 mg/ml, xylazin 2.5 mg/ml, intraperitoneal injection in a proportion of 4 ml/kg) (limited liability company Centravet, Taden, France). The common branch of the sciatic nerve was exposed and a section 2 mm long of a hollow PE-20 polyethylene tube (“Harvard Apparatus”, Les Ulis, France) was placed around said branch (“Cuff” group). […] Control mice were operated on according to the same procedure, but without placing the cuff (“Sham” group). The experimental groups are made up of at least 4 mice for each control (“Sham”) group and at least 5 mice for each neuropathic (“Cuff”) group.
(§3) The mice are placed in transparent Plexiglas (registered trademark) boxes (7 cm×9 cm×7 cm) placed on a raised grid. Before the test, the mice are allowed to become accustomed to this device for 15 minutes. During the test, the von Frey filaments are applied to the plantar surface of each back foot according to ascending forces (from 0.16 g up to a foot withdrawal response, or up to a maximum of 10 g). Each filament is tested 5 times per foot and the threshold is defined by the presence of 3 or more withdrawals observed over the 5 tests. Before the surgery as described above, the animals were pretested in order to establish their baseline nociceptive response. During the chronic treatment experiments and those of repeated injection of antagonists, the tests are carried out in the mornings before the first injection of the day. During the acute agonist injection experiments, the tests are carried out after the first injection according to the time course as presented on the graphs.
The surgery for installing the cuff corresponds to day 0.
(§4) For all the treatments carried out by injection, said injections were given intraperitoneally in a volume of 50 microL per 10 mg of body weight.

[2] = system: nociceptive sensitivity of the mice of the control (“Sham”) group; test: von Frey filament test in control (Sham) mice operated without cuff; details: for Sensitivity of control (Sham) animals under chronic treatment, recapitulation (FIG. 26): chronic treatment (14-21 days), doses and modes as in examples 2, 7, 9 to 14 and 20 (formoterol 0.5 mg/kg, terbutalin 5 mg/kg); for Nociceptive sensitivity of control (Sham) mice under chronic treatment: repeated injections, doses and modes as for the Cuff mice of the same example
Protocol: as §1, §2, §3, §4

[3] = system: mechanical allodynia of the neuropathic (“Cuff”) mice; test: Cotreatment with adrenoreceptor antagonists in Cuff mice relieved by chronic nortriptylin or beta-agonist treatment, von Frey test; details: for Effect of coadministered beta2-adrenoreceptor antagonist ICI 118,551 on the allodynia of agonist-treated Cuff mice: ICI 118,551 2 mg/kg intraperitoneal, after 3 weeks of agonist treatment (doses as in chronic treatment; terbutalin 0.5 mg/kg), 3 to 6 days of cotreatment; for Effect of ICI 118,551 on the therapeutic effect of chronic agonist treatment on neuropathic allodynia, summary statement: chronic treatment with the agonist plus beta2-adrenoreceptor antagonist ICI 118,551; for Blocking of the effect of antidepressants on neuropathic allodynia by repeated antagonist treatment, summary statement: doses as in examples 3 to 6
Protocol: as §2
For the tests, in the examples which follow, the pressure is exerted on the foot of the mice by means of von Frey filaments (Bioseb, Chaville, France) (Benbouzid, M. et al. Biological Psychiatry 63:633-636 (2008) (10) and Benbouzid, M. et al. European Journal of Pain 12:591-599 (2008) (11)). The mice are placed in transparent Plexiglas (registered trademark) boxes (7 cm×9 cm×7 cm) placed on a raised grid. Before the test, the mice are allowed to become accustomed to this device for 15 minutes. During the test, the von Frey filaments are applied to the plantar surface of each back foot according to ascending forces (from 0.16 g up to a foot withdrawal response, or up to a maximum of 10 g). Each filament is tested 5 times per foot and the threshold is defined by the presence of 3 or more withdrawals observed over the 5 tests. Before the surgery as described above, the animals were pretested in order to establish their baseline nociceptive response. During the chronic treatment experiments and those of repeated injection of antagonists, the tests are carried out in the mornings before the first injection of the day. During the acute agonist injection experiments, the tests are carried out after the first injection according to the time course as presented on the graphs.
The procedure for intrathecal (i.t.) injection of the beta2-adrenoreceptor antagonist ICI 118,551 (3 μg in 10 μl) is carried out under halothane gas anesthesia according to the protocol described by Inoue et al. (Nature Medicine 2004, 10:712-718 (12)). These i.t. injections are carried out just before the intraperitoneal injection of salbutamol (2 mg/kg, i.p.). A 27-gauge injection needle connected to a 50 μl Hamilton syringe is inserted, between the L5 and L6 vertebrae, into the subarachnoid space. The correct placement of the needle is verified by the presence of a reflex movement of the tail of the mouse. The mice are pretested before this cotreatment procedure, and then cotreated twice (a morning and the corresponding evening) before being retested the following morning for their mechanical nociceptive sensitivity.

[4] = antagonist 2 mg/kg intraperitoneal with nortriptylin 5 mg/kg twice a day, after 3 weeks of nortriptylin (metoprolol, ICI 118,551: for 6 days)
[5] = intraperitoneal antagonist, doses as for the Cuff mice of the same example (ICI 118,551 2 mg/kg, yohimbin 2 mg/kg, propranolol 5 mg/kg), with or without cotreatment

Q: What does the source list for `CC(NCCc1ccc(O)cc1)C(O)c1ccc(O)cc1` (stereo not drawn) [ritodrin]?
A: Mechanical allodynia in neuropathic (Cuff) mice after chronic treatment ([1]; 10 mg/kg): completely suppresses the mechanical allodynia; Allodynia in neuropathic (Cuff) animals after chronic treatment, recapitulation (FIG. 25) [1]: relieve this allodynia; also recorded: causes the neuropathic pain, for example the neuropathic allodynia, to completely disappear; Sensitivity of control (Sham) animals under chronic treatment, recapitulation (FIG. 26) [2]: do not affect the control animals; also recorded: does not aspecifically affect the sensitivity of the control animals; Effect of coadministered beta2-adrenoreceptor antagonist ICI 118,551 on the allodynia of agonist-treated Cuff mice [3]: causes the allodynia to reappear; Effect of ICI 118,551 on the therapeutic effect of chronic agonist treatment on neuropathic allodynia, summary statement [3]: blocks the therapeutic effect

Q: What does the source list for `COCCc1ccc(OCC(O)CNC(C)C)cc1` (racemic) [metoprolol, (+/−)-metoprolol (+)-tartrate]?
A: Effect of antagonist cotreatment on the therapeutic benefit of nortriptylin in Cuff mice [3, 4]: has no influence on the therapeutic benefit; Blocking of the effect of antidepressants on neuropathic allodynia by repeated antagonist treatment, summary statement [3]: only the beta2-adrenoreceptor antagonist blocks the effect of antidepressants

Q: Which results are given for `CC(C)NCC(O)c1cc(O)cc(O)c1` (stereo not drawn) [metaproterenol]?
A: Mechanical allodynia in neuropathic (Cuff) mice after chronic treatment ([1]; 1 mg/kg): completely suppresses the mechanical allodynia; Mechanical allodynia in neuropathic (Cuff) mice after chronic application of a gel to the skin ([1]; 0.1 ml of gel twice a day, 1 mg/ml metaproterenol hemisulfate in 5% hydroxyethylcellulose gel, from 8 days after surgery): relieves the mechanical allodynia; also recorded: relieves neuropathic allodynia; Allodynia in neuropathic (Cuff) animals after chronic treatment, recapitulation (FIG. 25) [1]: relieve this allodynia; also recorded: causes the neuropathic pain, for example the neuropathic allodynia, to completely disappear; Sensitivity of control (Sham) animals under chronic treatment, recapitulation (FIG. 26) [2]: do not affect the control animals; also recorded: does not aspecifically affect the sensitivity of the control animals

Q: How did the “Nociceptive sensitivity of control (Sham) mice under antagonist injections” value ([2]; intraperitoneal antagonist, doses as for the Cuff mice of the same example (ICI 118,551 2 mg/kg, yohimbin 2 mg/kg, propranolol 5 mg/kg), with or without cotreatment, hydrochloride) turn out when `CC(C)NCC(O)COc1cccc2ccccc12` (racemic) [propranolol, (+/−)-propranolol hydrochloride] was run?
A: not affected; also recorded: does not affect the response of the control animals

Q: What about the “Effect of antagonist cotreatment on the therapeutic benefit of nortriptylin in Cuff mice” value (shortened to “Effect of antagonist cotreatment … in Cuff mice”) ([3]; antagonist 5 mg/kg intraperitoneal with nortriptylin 5 mg/kg twice a day, after 3 weeks of nortriptylin) of the same compound?
A: causes the allodynia to reappear in a few days

Q: And the “Blocking of the effect of antidepressants on neuropathic allodynia by repeated antagonist treatment, summary statement” value (“Blocking” for short) [3]?
A: blocks the therapeutic effect of antidepressants

Q: For `CN(C)C(=O)Oc1cc(OC(=O)N(C)C)cc(C(O)CNC(C)(C)C)c1` (stereo not drawn) [bambuterol], which “Mechanical allodynia in neuropathic (Cuff) mice after chronic treatment” value ([1]; 0.5 mg/kg) is on record?
A: completely suppresses the mechanical allodynia

Q: And the “Mechanical allodynia of Cuff mice after the first (acute) injection” value ([1]; 0.5 mg/kg)?
A: has no anti-allodynia effect

Q: And the “Allodynia in neuropathic (Cuff) animals after chronic treatment, recapitulation (FIG. 25)” value (“Allodynia in neuropathic (Cuff) animals” for short) [1]?
A: relieve this allodynia; also recorded: causes the neuropathic pain, for example the neuropathic allodynia, to completely disappear

Q: What about the “Effect on neuropathic allodynia acutely after the first injection, summary statement” value [1] of the same compound?
A: not observed acutely after the first injection

Q: What about the “Control (Sham) mice after the first administration” value ([2]; bambuterol 0.5 mg/kg, intraperitoneal, first injection) of the same compound?
A: unaffected

Q: What about the “Sensitivity of control (Sham) animals under chronic treatment, recapitulation (FIG. 26)” value (“Sensitivity of control (Sham) animals” for short) [2] of the same compound?
A: do not affect the control animals; also recorded: does not aspecifically affect the sensitivity of the control animals

Q: What about the “Nociceptive sensitivity of control (Sham) mice under chronic treatment” value [2] of the same compound?
A: not affected

Q: And the “Effect of coadministered beta2-adrenoreceptor antagonist ICI 118,551 on the allodynia of agonist-treated Cuff mice” value [3]?
A: causes the allodynia to reappear

Q: What about the “Effect of ICI 118,551 on the therapeutic effect of chronic agonist treatment on neuropathic allodynia, summary statement” value [3] of the same compound?
A: blocks the therapeutic effect

Q: With `CC(C)NCC(O)c1ccc(O)c(O)c1` (racemic) [isoprenalin, DL-isoproterenol chloride] as the compound, how does the “Mechanical allodynia in neuropathic (Cuff) mice after chronic treatment” value ([1]; 0.5 mg/kg) read?
A: completely suppresses the mechanical allodynia

Q: And the “Allodynia in neuropathic (Cuff) animals” value [1]?
A: relieve this allodynia; also recorded: causes the neuropathic pain, for example the neuropathic allodynia, to completely disappear

Q: And the “Sensitivity of control (Sham) animals” value [2]?
A: do not affect the control animals; also recorded: does not aspecifically affect the sensitivity of the control animals

Q: And the “Effect of coadministered beta2-adrenoreceptor antagonist ICI 118,551 on the allodynia of agonist-treated Cuff mice” value [3]?
A: causes the allodynia to reappear

Q: What about the “Effect of ICI 118,551 on the therapeutic effect of chronic agonist treatment on neuropathic allodynia, summary statement” value [3] of the same compound?
A: blocks the therapeutic effect

Q: `CCC(NC(C)C)C(O)c1ccc(O)c2[nH]c(=O)ccc12` (stereo not drawn) [procaterol] was tested. Which “Mechanical allodynia in neuropathic (Cuff) mice after chronic treatment” value ([1]; 0.8 mg/kg) did it give?
A: completely suppresses the mechanical allodynia

Q: What about the “Allodynia in neuropathic (Cuff) animals” value [1] of the same compound?
A: relieve this allodynia; also recorded: causes the neuropathic pain, for example the neuropathic allodynia, to completely disappear

Q: And the “Sensitivity of control (Sham) animals” value [2]?
A: do not affect the control animals; also recorded: does not aspecifically affect the sensitivity of the control animals

Q: What about the “Effect of ICI 118,551 on the therapeutic effect of chronic agonist treatment on neuropathic allodynia, summary statement” value [3] of the same compound?
A: blocks the therapeutic effect

Q: With `CC(C)NCC(O)c1ccc(NS(C)(=O)=O)cc1.Cl` (racemic) [sotatol, (+/−) sotatol hydrochloride] as the compound, how does the “Effect of antagonist cotreatment with nortriptylin, compared with propranolol” value ([3]; 2 mg/kg in place of propranolol 5 mg/kg, same results = as propranolol (allodynia reappears in Cuff, Sham not affected)) read?
A: same results

Q: Which “Mechanical allodynia in neuropathic (Cuff) mice after chronic treatment” value ([1]; 2 mg/kg) does the source give for `CC(C)(C)NCC(O)c1ccc(O)c(CO)c1` (stereo not drawn) [salbutamol] here?
A: relieves the mechanical allodynia

Q: What about the “Mechanical allodynia of Cuff mice after the first (acute) injection” value ([1]; 2 mg/kg) of the same compound?
A: has no effect on the mechanical allodynia

Q: And the “Allodynia in neuropathic (Cuff) animals” value [1]?
A: relieve this allodynia; also recorded: causes the neuropathic pain, for example the neuropathic allodynia, to completely disappear

Q: And the “Effect on neuropathic allodynia acutely after the first injection, summary statement” value [1]?
A: not observed acutely after the first injection

Q: And the “Mechanical allodynia in neuropathic (Cuff) mice after chronic treatment by inhalation” value ([1]; salbutamol sulfate inhaler (Ventolin), twice a day, 100 μg per session for 2 weeks, then inhaler pressed 3 times per session for 9 days)?
A: relieves the mechanical allodynia; also recorded: relieves neuropathic allodynia

Q: And the “Sensitivity of control (Sham) animals” value [2]?
A: do not affect the control animals; also recorded: does not aspecifically affect the sensitivity of the control animals

Q: And the “Nociceptive sensitivity of control (Sham) mice under chronic treatment” value [2]?
A: not affected

Q: What about the “Effect of intrathecal beta2-adrenoreceptor antagonist ICI 118,551 on the allodynia of agonist-treated Cuff mice” value ([3]; ICI 118,551 3 μg in 10 μl intrathecal before each of 2 injections of salbutamol 2 mg/kg i.p., after at least 3 weeks of salbutamol) of the same compound?
A: causes the allodynia to reappear; also recorded: blocks the therapeutic effect

Q: What about the “Effect of coadministered beta2-adrenoreceptor antagonist ICI 118,551 on the allodynia of agonist-treated Cuff mice” value [3] of the same compound?
A: causes the allodynia to reappear

Q: What about the “Effect of ICI 118,551 on the therapeutic effect of chronic agonist treatment on neuropathic allodynia, summary statement” value [3] of the same compound?
A: blocks the therapeutic effect

Q: With `COC(=O)[C@@H]1[C@H]2C[C@H]3c4[nH]c5ccccc5c4CCN3C[C@@H]2CC[C@@H]1O` [yohimbin] as the compound, how does the “Nociceptive sensitivity of control (Sham) mice under antagonist injections” value [2, 5] read?
A: not affected

Q: What about the “Effect of antagonist cotreatment … in Cuff mice” value [3, 4] of the same compound?
A: has no influence on the therapeutic benefit

Q: And the “Blocking” value [3]?
A: ineffective in blocking the analgesic effect of antidepressants

Q: How did the “Effect of antagonist cotreatment with nortriptylin, compared with metoprolol” value ([3]; 5 mg/kg in place of metoprolol 2 mg/kg, same results = as metoprolol (no influence on the therapeutic benefit)) turn out when `CC(C)NCC(O)COc1ccc(CC(N)=O)cc1` (stereo not drawn) [atenolol] was run?
A: same results

Q: For `CCc1ccccc1OC[C@@H](O)CN[C@H]1CCCc2ccccc21` [SR59230A], which “Effect of antagonist cotreatment … in Cuff mice” value ([3]; antagonist 2.5 mg/kg intraperitoneal for 6 days with nortriptylin, after 3 weeks of nortriptylin) is on record?
A: has no influence on the therapeutic benefit

Q: And the “Blocking” value [3]?
A: only the beta2-adrenoreceptor antagonist blocks the effect of antidepressants

Q: How did the “Nociceptive sensitivity of control (Sham) mice under antagonist injections” value ([2]; ICI 118,551 intraperitoneal (2 mg/kg) or intrathecal (3 μg in 10 μl), with salbutamol) turn out when `Cc1ccc(OCC(O)C(C)NC(C)C)c2c1CCC2` (stereo not drawn) [ICI 118,551] was run?
A: not affected

Q: What about the “Nociceptive sensitivity of control (Sham) mice under antagonist injections” value [2, 5] of the same compound?
A: not affected; also recorded: does not affect the response of the control animals

Q: And the “Time to reappearance of allodynia after the beginning of the cotreatment with nortriptylin” value ([3]; ICI 118,551 2 mg/kg intraperitoneal coadministered with nortriptylin, Cuff mice)?
A: ≤ 48 h

Q: What about the “Effect of antagonist cotreatment … in Cuff mice” value [3, 4] of the same compound?
A: leads to reappearance of the neuropathic allodynia

Q: What about the “Blocking” value [3] of the same compound?
A: blocks the effect of antidepressants
